Assay: Solvent solubility of the crown ether compounds in the coating solution
Format: physicochemical
Conditions: ethanol coating solution
Description: We prepared a coating solution for performing the perovskite encapsulating method. 18-crown-6-ether (hereafter, referred to as a raw material) was prepared as the crown ether. A compound (hereinafter, referred to as di-benzo) in which only two benzene rings are bonded to the crown ether was prepared as a comparative group. […] The di-benzo was dissolved in ethanol at 0.01 to 0.03% by weight. […] Thus, resulting solutions were prepared.

**Q.** For `c1ccc2c(c1)OCCOCCOc1ccccc1OCCOCCO2` [di-benzo], which solvent solubility is on record?
**A.** ≤ 0.03 % by weight
